The assay has as its target CaMKIIδ (Homo sapiens (Human), UniProt Q13557). As to the kind of experiment: In vitro CaMKIIδ activity assay (coupled assay measuring ADP released, peptide substrate AC3). The conditions noted are these: full length C-terminal His/Gln tagged CaMKIIδ construct, 16 nM enzyme, 25° C., duplicate. The class given is biochemical. On the procedure: An exemplary procedure for the in vitro CaMKIIδ inhibition assay, which can be used to determine the inhibitory action of compounds of the invention toward CaMKII, follows. The procedure is taken from Chao L H, et al., (2010) Nat Struct Mol Biol. 17(3): 264-272, which is incorporated herein by reference in its entirety.
The inhibition of CaMKII activity was evaluated using a coupled assay measuring ADP released following ATP hydrolysis and phosphor-transfer to the peptide substrate AC3 (KKALHRQETVDAL; SEQ ID NO: 1) (1). A full length, C-terminal His/Gln tagged CaMKIIδ construct was used (sequence in Table 3 below).
Compounds were added in 5 uL volume to wells in UV transparent 96-well plates (½ area well size). The final compound concentrations tested ranged from 0.5 nM to 10 uM). Assays were performed in duplicate. CaMKIIδ is added to at a final concentration of 16 nM to a mixture containing 100 mM Tris (pH 7.5), 150 mM KCl, 0.27 mM EGTA, 1.3 mM PEP, 0.2 mg/ml AC3, 6.9% (v/v) PK/LDH mixture (Sigma P0294), 0.38 mM NADH and kept on ice. 72 uL of the enzyme mixture was added to the wells containing compounds and the plate was shaken briefly and kept on ice. The assay was initiated by adding 23 uL of a mixture containing 100 mM Tris (pH 7.5), 150 mM KCl, 1.7 mM CaCl2, 48 mM MgCl2, 0.35 mM ATP and 6.7 ug/mL calmodulin. The rate of ADP released was measured as the rate of absorbance decrease at […] at 25° C. and plotted against the log of the compound concentration (FIG. 1). IC50 data were fitted using GraphPad Prism software.
As to `C(#Cc1ccnc2[nH]c3ccccc3c12)CN1CCNCC1` [Compound 9n], the IC50 fell in the range of 250 to 1000 nM.
As to `Clc1cnccc1-c1ccnc2[nH]c3ccccc3c12` [Compound 8r], the IC50 was at least 1000 nM.
For `NCCNc1cccc(-c2ccnc3[nH]c4ccccc4c23)c1` [Compound I-7, N1-(3-(9H-pyrido[2,3-b]indol-4-yl)phenyl)ethane-1,2-diamine] the value was at most 50 nM; for `NCc1cccc(-c2ccnc3[nH]c4ccccc4c23)c1` [Compound I-3], at least 1000 nM.
For `Cc1nn(C2CCNCC2)cc1-c1ccnc2[nH]c3ccccc3c12` [Compound 9l] the value was at least 1000 nM.
Take `C(=C\c1ccnc2[nH]c3ccccc3c12)/CN1CCNCC1` [Compound 9h]: the IC50 is at least 1000 nM.
In the case of `C(=C/c1ccnc2[nH]c3ccccc3c12)/CN1CCNCC1` [Compound 9o] it was at least 1000 nM.
As to `NCCNc1cccc(-c2ccnc3[nH]c4ccc(Cl)cc4c23)c1` [Compound I-14, N1-(3-(6-chloro-9H-pyrido[2,3-b]indol-4-yl)phenyl)ethane-1,2-diamine], the IC50 is at most 50 nM.
For the molecule `Cc1ccc2[nH]c3nccc(-c4cccc(NCCN)c4)c3c2c1` [Compound I-13, N1-(3-(6-methyl-9H-pyrido[2,3-b]indol-4-yl)phenyl)ethane-1,2-diamine], the IC50 is at most 50 nM.
In the case of `c1cc(-c2ccnc3[nH]c4ccccc4c23)nc(N2CCNCC2)c1` [Compound 9j] it was at most 50 nM; in that of `Clc1ccncc1-c1ccnc2[nH]c3ccccc3c12` [Compound 8p], at least 1000 nM.
With `c1ccc2c(c1)[nH]c1nccc(-c3cncc(N4CCNCC4)c3)c12` [Compound 9a], the IC50 was 250 to 1000 nM.
In the case of `c1ccc2c(c1)[nH]c1nccc(-c3cnc(N4CCNCC4)s3)c12` [Compound 9k] it was at least 1000 nM.
For `COc1ccc2c(c1)[nH]c1nccc(-c3cccc(NCCN)c3)c12` [Compound I-12, N1-(3-(7-methoxy-9H-pyrido[2,3-b]indol-4-yl)phenyl)ethane-1,2-diamine] the value was at most 50 nM.
For `c1cc(-c2ccnc3[nH]c4ccccc4c23)cc(-n2ccnc2)c1` [Compound I-2, 4-(3-(1H-imidazol-1-yl)phenyl)-9H-pyrido[2,3-b]indole], the IC50 is at least 1000 nM.
`NCCOc1cccc(-c2ccnc3[nH]c4ccccc4c23)c1` [Compound I-9, 2-(3-(9H-pyrido[2,3-b]indol-4-yl)phenoxy)ethanamine]: the IC50 is at most 50 nM.
For the molecule `c1ccc2c(c1)[nH]c1nccc(-c3cc[nH]c3)c12` [Compound 8q], the IC50 was in the range of 250 to 1000 nM.
Take `NCCCOc1cccc(-c2ccnc3[nH]c4ccccc4c23)c1` [Compound I-10, 3-(3-(9H-pyrido[2,3-b]indol-4-yl)phenoxy)propan-1-amine]: the IC50 was at most 50 nM.
In the case of `c1ccc2c(c1)[nH]c1nccc(-n3cc(C4CCNCC4)nn3)c12` [Compound 9e], the IC50 was at least 1000 nM.
On to `c1ccc2c(c1)[nH]c1nccc(-c3cnn(C4CCNCC4)c3)c12` [Compound 9m], for which the IC50 was at least 1000 nM.

Source of the values: patent publication US10759792B2, “CaMKII inhibitors and uses thereof” (The Johns Hopkins University, priority 2014, dated 2020).
